These results are taken from US12275712B2, “Triterpene derivatives as HIV inhibitors” (HETERO LABS LIMITED, priority 2019, dated 2025).

Structures are written as SMILES. Like-named read-outs stand apart in the source and are kept apart here.

In general, IC50 refers to the concentration that gives 50% inhibition.

One test has as its system pNL4-3 WT. Nature of the test: Antiviral activity against pNL4-3 WT strain in MT4 cells (p24 estimation). The note with it: Human immunodeficiency virus 1, MT4, 96 h, read-out: pNL4-3 WT IC50. It is filed as cell-based, HIV-1. On the procedure:
(§1) MT4 cells were Transfected with HIV-1 Plasmid (pNL4-3-WT & V7A) (Cells were incubating with required number of TCID50 of HIV-1 for 1.5 h at 37° C.). After infection, the infected cells were plated at the concentration of 3×10^4 cells per well in 96 well plate. Test compound was added to the test plate in defined format with the final concentration of DMSO is not more than 1%. Incubation was carried out in CO2 incubator for 4 days for viral infection. At the end of incubation period an aliquot from each well was taken for p24 estimation. p24 estimation was carried out using Advance biosciences kit as per the procedure detailed by supplier.

Another test relates to HIV-1 strain 92HT599. Nature of the test: Antiviral activity against HIV-1 strain 92HT599 in MT2 cells (p24 estimation). The class given is cell-based. Here is the method:
MT2 cells were infected with HIV-1 strain 92HT599 (10 TCID 50/30000 cells). The infected cells were plated at the concentration of ˜30,000 cells per well in 96 well plate. Test compound was added to the micro plate in defined format with the final concentration of DMSO (vehicle) is not more than 1%. Incubation was carried out in CO2 incubator for ˜96 hours for viral infection. At the end of incubation period an aliquot from each well was taken for p24 estimation. The quantitation of p24 is an index for antiviral activity of the compound. Percent inhibition was calculated with reference to control values (vehicle controls). p24 estimation was carried out using Advance biosciences kit as per the procedure detailed by supplier.
The IC50 (nM) values are set forth in below Table-1.

The subject of a further test is pNL4-3 V7A. Nature of the test: Antiviral activity against pNL4-3 V7A strain in MT4 cells (p24 estimation). It is filed as cell-based, HIV-1. To be noted: Human immunodeficiency virus 1, MT4, 96 h, read-out: pNL4-3 V7A IC50. Here is the method:
as §1

Setting [1] is: Human immunodeficiency virus 1, HIV-1 strain 92HT599, MT2 cells, ~96 hours, p24, read-out: IC50.

In the case of `CC1([C@@H]2CC[C@]3(NCC(C)(C)N4CCS(=O)(=O)CC4)CC[C@]4(C)[C@H](CC[C@@H]5[C@@]6(C)CC[C@H](OC(=O)[C@H]7C[C@@H](C(=O)O)C7(C)C)C(C)(C)[C@@H]6CC[C@]54C)[C@@H]23)CC1` [Example 1, (1R,3S)-3-((((1R,3aS,5aR,5bR,7aR,9S,11aR,11bR,13aR,13bR)-3a-((2-(1,1-dioxidothiomorpholino)-2-methylpropyl)amino)-5a,5b,8,8,11a-pentamethyl-1-(1-methylcyclopropyl)icosahydro-1H-cyclopentachrysen-9-yl)oxy)carbonyl)-2,2-dimethyl cyclobutane-1-carboxylic acid], the IC50 was over 50 nM in the test on pNL4-3 WT, over 20 nM in the test on HIV-1 strain 92HT599 (setting [1]) and over 100 nM in the test on pNL4-3 V7A.
For `C=C(C)[C@@H]1CC[C@]2(NC[C@H]([C@@H](C)OC(=O)COCCOC)N3CCS(=O)(=O)CC3)CC[C@]3(C)[C@H](CC[C@@H]4[C@@]5(C)CC[C@H](OC(=O)[C@H]6C[C@@H](C(=O)O)C6(C)C)C(C)(C)[C@@H]5CC[C@]43C)[C@@H]12` [Example 19, (1R,3S)-3-((((1R,3aS,5aR,5bR,7aR,9S,11aR,11bR,13aR,13bR)-3a-(((2R,3R)-2-(1,1-dioxidothiomorpholino)-3-(2-(2-methoxyethoxy)acetoxy)butyl)amino)-5a,5b,8,8,11a-pentamethyl-1-(prop-1-en-2-yl)icosahydro-1H-cyclopentachrysen-9-yl)oxy)carbonyl)-2,2-dimethylcyclobutane-1-carboxylic acid], in that order: under 10 nM, under 10 nM and 1 to 50 nM.
As for `C=C(C)[C@@H]1CC[C@]2(NC[C@H]([C@@H](C)O)N3CCS(=O)(=O)CC3)CC[C@]3(C)[C@H](CC[C@@H]4[C@@]5(C)CC[C@H](OC(=O)[C@H]6C[C@@H](C(=O)O)C6(C)C)C(C)(C)[C@@H]5CC[C@]43C)[C@@H]12` [Example 15, (1R,3S)-3-((((1R,3aS,5aR,5bR,7aR,9S,11aR,11bR,13aR,13bR)-3a-(((2R,3R)-2-(1,1-dioxidothiomorpholino)-3-hydroxybutyl)amino)-5a,5b,8,8,11a-pentamethyl-1-(prop-1-en-2-yl)icosahydro-1H-cyclopenta[a]chrysen-9-yl)oxy)carbonyl)-2,2-dimethylcyclobutane-1-carboxylic acid], the IC50 in the test on pNL4-3 WT was under 10 nM; in the test with HIV-1 strain 92HT599 (setting [1]), under 10 nM; in the test on pNL4-3 V7A, 1 to 50 nM.
As for `COCCOCCOCCO[C@H](C)[C@@H](CN[C@]12CC[C@@H](C3(C)CC3)[C@@H]1[C@H]1CC[C@@H]3[C@@]4(C)CC[C@H](OC(=O)[C@H]5C[C@@H](C(=O)O)C5(C)C)C(C)(C)[C@@H]4CC[C@@]3(C)[C@]1(C)CC2)N1CCS(=O)(=O)CC1` [Example 18, (1R,3S)-3-((((1R,3aS,5aR,5bR,7aR,9S,11aR,11bR,13aR,13bR)-3a-(((12R,13R)-13-(1,1-dioxidothiomorpholino)-12-methyl-2,5,8,11-tetraoxatetradecan-14-yl)amino)-5a,5b,8,8,11a-pentamethyl-1-(1-methylcyclopropyl)icosahydro-1H-cyclopenta[a]chrysen-9-yl)oxy)carbonyl)-2,2-dimethylcyclobutane-1-carboxylic acid], the values for the half-maximal inhibitory concentration (IC50) in the test with pNL4-3 WT, with HIV-1 strain 92HT599 (setting [1]) and in the test with pNL4-3 V7A were under 10 nM, under 10 nM and 1 to 50 nM, respectively.
Regarding `C[C@@H](CN[C@]12CC[C@@H](C3(C)CC3)[C@@H]1[C@H]1CC[C@@H]3[C@@]4(C)CC[C@H](OC(=O)[C@H]5C[C@@H](C(=O)O)C5(C)C)C(C)(C)[C@@H]4CC[C@@]3(C)[C@]1(C)CC2)N1CCS(=O)(=O)CC1` [Example 2, (1R,3S)-3-((((1R,3aS,5aR,5bR,7aR,9S,11aR,11bR,13aR,13bR)-3a-(((S)-2-(1,1-dioxidothiomorpholino)propyl)amino)-5a,5b,8,8,11a-pentamethyl-1-(1-methylcyclopropyl)icosahydro-1H-cyclopentachrysen-9-yl)oxy)carbonyl)-2,2-dimethyl cyclobutane-1-carboxylic acid], the IC50 was under 10 nM in the test on pNL4-3 WT, under 10 nM with HIV-1 strain 92HT599 (setting [1]) and 1 to 50 nM with pNL4-3 V7A.
Consider `C[C@H](O)[C@H](CN[C@]12CC[C@@H](C3(C)CC3)[C@@H]1[C@H]1CC[C@@H]3[C@@]4(C)CC[C@H](OC(=O)[C@H]5C[C@@H](C(=O)O)C5(C)C)C(C)(C)[C@@H]4CC[C@@]3(C)[C@]1(C)CC2)N1CCS(=O)(=O)CC1` [Example 13, (1R,3S)-3-((((1R,3aS,5aR,5bR,7aR,9S,11aR,11bR,13aR,13bR)-3a-(((2S,3S)-2-(1,1-dioxidothiomorpholino)-3-hydroxybutyl)amino)-5a,5b,8,8,11a-pentamethyl-1-(1-methylcyclopropyl)icosahydro-1H-cyclopenta[a]chrysen-9-yl)oxy)carbonyl)-2,2-dimethylcyclobutane-1-carboxylic acid], for which the figures for the IC50 in the test on pNL4-3 WT, in the test on HIV-1 strain 92HT599 (setting [1]) and in the test with pNL4-3 V7A were under 10 nM, under 10 nM and 1 to 50 nM, respectively.
For the compound `CC1([C@@H]2CC[C@]3(NC[C@H](C(=O)O)N4CCS(=O)(=O)CC4)CC[C@]4(C)[C@H](CC[C@@H]5[C@@]6(C)CC[C@H](OC(=O)[C@H]7C[C@@H](C(=O)O)C7(C)C)C(C)(C)[C@@H]6CC[C@]54C)[C@@H]23)CC1` [Example 16, (1R,3S)-3-((((1R,3aS,5aR,5bR,7aR,9S,11aR,11bR,13aR,13bR)-3a-(((R)-2-carboxy-2-(1,1-dioxidothiomorpholino)ethyl)amino)-5a,5b,8,8,11a-pentamethyl-1-(1-methylcyclopropyl)icosahydro-1H-cyclopenta[a]chrysen-9-yl)oxy)carbonyl)-2,2-dimethylcyclobutane-1-carboxylic acid], the IC50 in the test with pNL4-3 WT was over 50 nM; with HIV-1 strain 92HT599 (setting [1]) it was 10 to 20 nM; in the test with pNL4-3 V7A, over 100 nM.
For `CC1([C@@H]2CC[C@]3(NC[C@H](CO[Si](C)(C)C(C)(C)C)N4CCS(=O)(=O)CC4)CC[C@]4(C)[C@H](CC[C@@H]5[C@@]6(C)CC[C@H](OC(=O)[C@H]7C[C@@H](C(=O)O)C7(C)C)C(C)(C)[C@@H]6CC[C@]54C)[C@@H]23)CC1` [Example 4, (1R,3S)-3-((((1R,3aS,5aR,5bR,7aR,9S,11aR,11bR,13aR,13bR)-3a-(((R)-3-((tert-butyldimethylsilyl)oxy)-2-(1,1-dioxidothiomorpholino)propyl)amino)-5a,5b, 8,8,11a-pentamethyl-1-(1-methylcyclopropyl)icosahydro-1H-cyclopenta[a]chrysen-9-yl)oxy)carbonyl)-2,2-dimethylcyclobutane-1-carboxylic acid], the IC50 was over 50 nM with pNL4-3 WT; 10 to 20 nM with HIV-1 strain 92HT599 (Human immunodeficiency virus 1, MT2, 96 h); over 100 nM with pNL4-3 V7A.
Turning to `CC(C)S(=O)(=O)N1CCN([C@@H](C)CN[C@]23CC[C@@H](C4(C)CC4)[C@@H]2[C@H]2CC[C@@H]4[C@@]5(C)CC[C@H](OC(=O)[C@H]6C[C@@H](C(=O)O)C6(C)C)C(C)(C)[C@@H]5CC[C@@]4(C)[C@]2(C)CC3)CC1` [Example 11, (1R,3S)-3-((((1R,3aS,5aR,5bR,7aR,9S,11aR,11bR,13aR,13bR)-3a-(((S)-2-(4-(isopropylsulfonyl)piperazin-1-yl)propyl)amino)-5a,5b,8,8,11a-pentamethyl-1-(1-methylcyclopropyl)icosahydro-1H-cyclopenta[a]chrysen-9-yl)oxy)carbonyl)-2,2-dimethyl cyclobutane-1-carboxylic acid], the half-maximal inhibitory concentration (IC50) in the test with pNL4-3 WT was under 10 nM; with HIV-1 strain 92HT599 (setting [1]), under 10 nM; with pNL4-3 V7A it was 1 to 50 nM.
`CC1([C@@H]2CC[C@]3(NC[C@H](CO)N4CCS(=O)(=O)CC4)CC[C@]4(C)[C@H](CC[C@@H]5[C@@]6(C)CC[C@H](OC(=O)[C@H]7C[C@@H](C(=O)O)C7(C)C)C(C)(C)[C@@H]6CC[C@]54C)[C@@H]23)CC1` [Example 5, (1R,3S)-3-((((1R,3aS,5aR,5bR,7aR,9S,11aR,11bR,13aR,13bR)-3a-(((R)-2-(1,1-dioxidothiomorpholino)-3-hydroxypropyl)amino)-5a,5b,8,8,11a-pentamethyl-1-(1-methylcyclopropyl)icosahydro-1H-cyclopenta[a]chrysen-9-yl)oxy)carbonyl)-2,2-dimethylcyclobutane-1-carboxylic acid]: the IC50 is under 10 nM with pNL4-3 WT, under 10 nM in the test on HIV-1 strain 92HT599 (setting [1]) and 1 to 50 nM with pNL4-3 V7A.
As for `CC1([C@@H]2CC[C@]3(NC[C@@H](CF)N4CCS(=O)(=O)CC4)CC[C@]4(C)[C@H](CC[C@@H]5[C@@]6(C)CC[C@H](OC(=O)[C@H]7C[C@@H](C(=O)O)C7(C)C)C(C)(C)[C@@H]6CC[C@]54C)[C@@H]23)CC1` [Example 9, (1R,3S)-3-((((1R,3aS,5aR,5bR,7aR,9S,11aR,11bR,13aR,13bR)-3a-(((S)-2-(1,1-dioxidothiomorpholino)-3-fluoropropyl)amino)-5a,5b,8,8,11a-pentamethyl-1-(1-methylcyclopropyl)icosahydro-1H-cyclopentachrysen-9-yl)oxy)carbonyl)-2,2-dimethyl cyclobutane-1-carboxylic acid], the IC50 is 10 to 50 nM in the test with pNL4-3 WT, under 10 nM in the test on HIV-1 strain 92HT599 (setting [1]) and 50 to 100 nM in the test on pNL4-3 V7A.
